Read-outs that look alike come from different tables or passages of the source.
Columns and labels:
[1] = test system: H. pylori; test: Verification of resistance breakpoint: growth of laboratory strains on Columbia solid culture medium with added antibiotics, 72 hours; type: cell-based, Helicobacter pylori; conditions: for optimal concentration for adding antibiotics: conclusion of breakpoint verification
Experimental: The plates are cooled and inverted for approximately 10 mL/piece, marked properly for the subsequent use.
(2) Preparation of bacterial solution: H. pylori grown in logarithmic phase on a solid plate is taken to prepare a bacterial suspension by using BHI. The concentration OD600 is adjusted to 0.3 (1×10^8 CFU/mL), diluted 10 times for the subsequent use.
(3) Inoculation of bacterial solution: 10 μL of bacterial solution is taken and added to Columbia culture medium and the results are determined after cultivating for 72 hours.
(4) Result determination: the minimum drug concentration for no growth of bacteria on the plate is the minimum inhibitory concentration of the bacteria against the drug.

[2] = test system: H. pylori; test: Drug resistance testing of laboratory strains on characteristic culture medium (discoloration after 36 hours); type: cell-based, Helicobacter pylori
Experimental: The characteristic culture media (A, B, C, D, E) are cultivated at a constant temperature of 37° C. for 36 hours in a three gas incubator. The characteristic culture media are removed and placed in a natural environment for 30 minutes to observe whether there are discolorations at the point of the culture medium where the specimen is dropped in. […] Another 100 μL of the specimen is taken and coated on Columbia solid culture medium and cultivated in a three gas incubator at a constant temperature of 37° C. for 3 days to 5 days. The number of colonies on the plate is counted to determine the initial inoculation amount. The micro dilution method is adopted to test the MIC of clinical specimen H. pylori, the test is meaningful only when there is no bacterial growth in the negative control well without bacteria and there is bacterial growth in the positive well with bacteria but without antibiotics. […] The results are recorded and whether the micro dilution method and characteristic culture medium are consistent with each other in evaluating the drug resistance of clinical H. pylori strains is compared. […]
(2) Inoculation of bacterial solution: 10 μL bacterial solution is taken and added dropwise onto a characteristic culture medium with 5 pieces (ABCDE) in total.
(3) Culture: all plates are moved to a three gas incubator and cultivated at 37° C. for 36 hours. After being taken out and placed in a natural environment for 30 minutes, whether the bacteria have resistance is determined based on the discoloration of the characteristic culture medium.

[3] = test system: clinical H. pylori strain; test: Drug resistance testing of clinical specimens on characteristic culture medium (discoloration after 36 hours); type: cell-based, Helicobacter pylori
Experimental: (§1) The characteristic culture media (A, B, C, D, E) are cultivated at a constant temperature of 37° C. for 36 hours in a three gas incubator. The characteristic culture media are removed and placed in a natural environment for 30 minutes to observe whether there are discolorations at the point of the culture medium where the specimen is dropped in. […] Another 100 μL of the specimen is taken and coated on Columbia solid culture medium and cultivated in a three gas incubator at a constant temperature of 37° C. for 3 days to 5 days. The number of colonies on the plate is counted to determine the initial inoculation amount. The micro dilution method is adopted to test the MIC of clinical specimen H. pylori, the test is meaningful only when there is no bacterial growth in the negative control well without bacteria and there is bacterial growth in the positive well with bacteria but without antibiotics.
(1) Transfer liquid preparation: after sterilization and cooling, BHI culture medium is added with 10% calf serum, followed by 30% glycerol to prepare H. pylori preservation solution. On this basis, 1% H. pylori selective additive is added to prepare the transfer liquid. 1 mL of transfer solution is taken into a sterile EP tube, and 6-8 sterilized small steel balls are poured into the EP tube for the subsequent use.
(3) Specimen acquisition: a biopsy tissue group is obtained from the gastric antrum and a small curvature side of the gastric body through a gastroscopy biopsy passage and placed into an EP tube (strictly sterile operation). The biopsy tissue is placed on the ice surface and transferred as soon as possible (within 2 hours) to complete the subsequent steps.
(4) Preparation of bacterial solution containing tissue: the EP tube containing tissue is placed in a homogenizer at 300 hz and crushed for 5 minutes, transferred to another EP, centrifuged at 12000 rpm for 2 minutes, the supernatant is discarded, BHI is resuspended to 200 μL, and a bacterial suspension is prepared for the subsequent use.
(5) Inoculation of bacterial solution: 10 μL of bacterial solution is taken and added dropwise to the characteristic culture medium (5 pieces in total). The characteristic culture medium is removed after cultivating in a three gas incubator at 37° C. for 36 hours, and the results are determined after leaving for 30 minutes; another 100 μL is taken and coated onto Colombian culture medium for the traditional bacterial culture.

[4] = test system: clinical H. pylori strain; test: MIC of clinical H. pylori strains by micro dilution method; type: cell-based; conditions: Helicobacter pylori, 72 h
Experimental: as §1
H. pylori single colony grown on Colombian culture medium is taken (which is confirmed as H. pylori by urease, oxidase, catalase, and PCR testing of CagA gene, as illustrated in FIG. 13) and the bacteria are increased. During the preparation of MIC plates and bacterial solution, H. pylori with logarithmic growth phase is taken to prepare a bacterial suspension by using BHI. The concentration OD600 is adjusted to 0.3 (1×10^8 CFU/mL, diluted 10 times, 10 μL is taken and added to wells 1-8 (with a bacterial solution concentration of approximately 1.0×10^6 CFU/mL per well, cultivated for 72 hours to determine the results.

[5] = test system: H. pylori; conditions: bacterial count 1×10^6 CFU/mL; cited from earlier work
[6] = strain 159, antibiotic 0.25 μg/mL
[7] = strain 159, antibiotic 0.5 μg/mL
[8] = strain 161, antibiotic 0.25 μg/mL
[9] = strain 161, antibiotic 0.5 μg/mL
[10] = strain 162, antibiotic 0.25 μg/mL
[11] = strain 162, antibiotic 0.5 μg/mL
[12] = strain 163, antibiotic 0.25 μg/mL
[13] = strain 163, antibiotic 0.5 μg/mL
[14] = strain 286, antibiotic 0.25 μg/mL
[15] = strain 286, antibiotic 0.5 μg/mL
[16] = strain 287, antibiotic 0.25 μg/mL
[17] = strain 287, antibiotic 0.5 μg/mL
[18] = strain 289, antibiotic 0.25 μg/mL
[19] = strain 289, antibiotic 0.5 μg/mL
[20] = strain 290, antibiotic 0.25 μg/mL
[21] = strain 290, antibiotic 0.5 μg/mL
[22] = strain 26695, antibiotic 0.25 μg/mL
[23] = strain 26695, antibiotic 0.5 μg/mL
[24] = strain 26695, antibiotic 1 μg/mL
[25] = strain G27, antibiotic 0.25 μg/mL
[26] = strain G27, antibiotic 0.5 μg/mL
[27] = clinical strain FY-31, approximately 1.0×10^6 CFU/mL per well, 72 hours, read-out: MIC
[28] = clinical strain FY-47, approximately 1.0×10^6 CFU/mL per well, 72 hours, read-out: MIC
[29] = clinical strain FY-52, approximately 1.0×10^6 CFU/mL per well, 72 hours, read-out: MIC

With `CC[C@H]1OC(=O)[C@H](C)[C@@H](O[C@H]2C[C@@](C)(OC)[C@@H](O)[C@H](C)O2)[C@H](C)[C@@H](O[C@@H]2O[C@H](C)C[C@H](N(C)C)[C@H]2O)[C@](C)(OC)C[C@@H](C)C(=O)[C@H](C)[C@@H](O)[C@]1(C)O` [Clarithromycin, clarithromycin] the “optimal concentration for adding antibiotics” value [1] was 0.5 µg/mL, the “growth of sensitive strains” value ([1]; levofloxacin 0.5, clarithromycin 0.5, metronidazole 4, amoxicillin 0.5 μg/mL) was “no sensitive strain grows” and the growth of bacterial [1, 6] was “+”. For the same compound, the growth of bacterial [1, 7] was “+”, the growth of bacterial ([1]; strain 159, antibiotic 1 μg/mL) was “−” and the growth of bacterial [1, 8] was “+”. The growth of bacterial [1, 9] was “+”, the growth of bacterial ([1]; strain 161, antibiotic 1 μg/mL) was “−” and the growth of bacterial [1, 10] was “+”. The growth of bacterial [1, 11] was “+”, the growth of bacterial ([1]; strain 162, antibiotic 1 μg/mL) was “−” and the growth of bacterial [1, 12] was “−”. The growth of bacterial [1, 13] was “−”, the growth of bacterial ([1]; strain 163, antibiotic 1 μg/mL) was “−” and the growth of bacterial [1, 14] was “+”. For the same compound, the growth of bacterial [1, 15] was “+”, the growth of bacterial ([1]; strain 286, antibiotic 1 μg/mL) was “−” and the growth of bacterial [1, 16] was “+”. For the same compound, the growth of bacterial [1, 17] was “+”, the growth of bacterial ([1]; strain 287, antibiotic 1 μg/mL) was “−” and the growth of bacterial [1, 18] was “+”. For the same compound, the growth of bacterial [1, 19] was “+”, the growth of bacterial ([1]; strain 289, antibiotic 1 μg/mL) was “+” and the growth of bacterial [1, 20] was “+”. The growth of bacterial [1, 21] was “+”, the growth of bacterial ([1]; strain 290, antibiotic 1 μg/mL) was “−” and the growth of bacterial [1, 22] was “+”. For the same compound, the growth of bacterial [1, 23] was “−”, the growth of bacterial [1, 24] was “−” and the growth of bacterial [1, 25] was “+”. For the same compound, the growth of bacterial [1, 26] was “−”, the growth of bacterial ([1]; strain G27, antibiotic 1 μg/mL) was “−” and the “drug resistance determined by discoloration of characteristic culture medium” value ([2]; strain 159, 1×10^6 CFU/mL) was “developed resistance”. The “drug resistance determined by discoloration of characteristic culture medium” value ([2]; strain 286, 1×10^6 CFU/mL) was “have developed resistance”, the “drug resistance determined by discoloration of characteristic culture medium” value ([2]; strain 287, 1×10^6 CFU/mL) was “have developed resistance” and the “drug resistance determined by discoloration of characteristic culture medium” value ([2]; strain 289, 1×10^6 CFU/mL) was “have developed resistance”. For the same compound, the “drug resistance determined by discoloration of characteristic culture medium” value ([2]; strain G27, 1×10^6 CFU/mL) was “does not develop resistance”, the “drug resistance determined on characteristic culture medium” value ([3]; clinical H. pylori strain FY-31) was “sensitive” and the “drug resistance determined on characteristic culture medium” value ([3]; clinical H. pylori strain FY-43) was “sensitive”. The “drug resistance determined on characteristic culture medium” value ([3]; clinical H. pylori strain FY-47) was “sensitive”, the “drug resistance determined on characteristic culture medium” value ([3]; clinical H. pylori strain FY-52) was “sensitive” and the MIC [4] was 0.125 µg/mL. It also gave an MIC [4, 27] of 0.0625 µg/mL, an MIC [4, 28] of 0.0625 µg/mL and an MIC [4, 29] of 0.25 µg/mL. The “resistance breakpoints of H. pylori according to CLSI guidelines” value [5] was 2 µg/mL.

For `C[C@H]1COc2c(N3CCN(C)CC3)c(F)cc3c(=O)c(C(=O)O)cn1c23` [Levofloxacin, levofloxacin], the “optimal concentration for adding antibiotics” value [1] was 0.5 µg/mL, the growth of bacterial [1, 6] was “+” and the growth of bacterial [1, 7] was “+”. For the same compound, the growth of bacterial ([1]; strain 159, antibiotic 1 μg/mL) was “−”, the growth of bacterial [1, 8] was “+” and the growth of bacterial [1, 9] was “+”. The growth of bacterial ([1]; strain 161, antibiotic 1 μg/mL) was “−”, the growth of bacterial [1, 10] was “+” and the growth of bacterial [1, 11] was “+”. The growth of bacterial ([1]; strain 162, antibiotic 1 μg/mL) was “−”, the growth of bacterial [1, 12] was “+” and the growth of bacterial [1, 13] was “+”. For the same compound, the growth of bacterial ([1]; strain 163, antibiotic 1 μg/mL) was “−”, the growth of bacterial [1, 14] was “+” and the growth of bacterial [1, 15] was “+”. For the same compound, the growth of bacterial ([1]; strain 286, antibiotic 1 μg/mL) was “−”, the growth of bacterial [1, 16] was “+” and the growth of bacterial [1, 17] was “+”. For the same compound, the growth of bacterial ([1]; strain 287, antibiotic 1 μg/mL) was “−”, the growth of bacterial [1, 18] was “+” and the growth of bacterial [1, 19] was “+”. The growth of bacterial ([1]; strain 289, antibiotic 1 μg/mL) was “+”, the growth of bacterial [1, 20] was “+” and the growth of bacterial [1, 21] was “+”. The growth of bacterial ([1]; strain 290, antibiotic 1 μg/mL) was “+”, the growth of bacterial [1, 22] was “−” and the growth of bacterial [1, 23] was “−”. For the same compound, the growth of bacterial [1, 24] was “−”, the growth of bacterial [1, 25] was “+” and the growth of bacterial [1, 26] was “−”. For the same compound, the growth of bacterial ([1]; strain G27, antibiotic 1 μg/mL) was “−”, the MIC [4, 27] was 16 µg/mL and the MIC ([4]; clinical strain FY-43, approximately 1.0×10^6 CFU/mL per well, 72 hours, read-out: MIC) was 1 µg/mL. It also gave an MIC [4, 28] of 0.5 µg/mL and an MIC [4, 29] of 0.25 µg/mL.

Reference: US12486489B2, “Culture medium for testing drug resistance of H.pylori as well as preparation method and use thereof” (priority 2022, dated 2025)
